Values of other authors, collected in patent US20120201914A1, “Method and Composition for Improving Animal Oral Health” (priority 2011, published 2012).

System: various oral pathogens, such as S. mutans, C. albicans, A. actinomycetemcomitans, F. nucleatum, and P. gingivalis
Conditions: against various oral pathogens; recent studies
In the case of CC/C=C\C/C=C\C/C=C\C/C=C\C/C=C\CCCC(=O)OCC [EPA-EE], the antibacterial activity is given as “antibacterial activities”.
In the case of CC/C=C\C/C=C\C/C=C\CCCCCCCC(=O)OC [ALA-ME], the antibacterial activity is given as “antibacterial activities”.
In the case of CC/C=C\C/C=C\C/C=C\C/C=C\C/C=C\CCCC(=O)OC [EPA-ME], the antibacterial activity is given as “antibacterial activities”.
For CC/C=C\C/C=C\C/C=C\C/C=C\C/C=C\C/C=C\CCC(=O)OC [DHA-ME], the antibacterial activity is listed as “antibacterial activities”.
In the case of CC/C=C\C/C=C\C/C=C\CCCCCCCC(=O)O [ALA, α-linolenic acid], the antibacterial activity is given as “antibacterial activities”.
For CC/C=C\C/C=C\C/C=C\C/C=C\C/C=C\C/C=C\CCC(=O)OCC [DHA-EE], the antibacterial activity is listed as “antibacterial activities”.
For CC/C=C\C/C=C\C/C=C\CCCCCCCC(=O)OCC [ALA-EE], the antibacterial activity is listed as “antibacterial activities”.
